{"source": "patent US20160034667A1", "about": "“TAILORED DRUG THERAPIES AND METHODS AND SYSTEMS FOR DEVELOPING SAME” (COMPANION DX REFERENCE LAB, LLC, priority 2014, published 2016)", "origin": "cited, not measured here", "key": {"[1]": {"assay": "not given", "remark": "listed apart in the source"}, "CYP2D6": {"molecular_target": "CYP2D6 (Homo sapiens, UniProt P10635)", "sequence (P10635 whole entry)": "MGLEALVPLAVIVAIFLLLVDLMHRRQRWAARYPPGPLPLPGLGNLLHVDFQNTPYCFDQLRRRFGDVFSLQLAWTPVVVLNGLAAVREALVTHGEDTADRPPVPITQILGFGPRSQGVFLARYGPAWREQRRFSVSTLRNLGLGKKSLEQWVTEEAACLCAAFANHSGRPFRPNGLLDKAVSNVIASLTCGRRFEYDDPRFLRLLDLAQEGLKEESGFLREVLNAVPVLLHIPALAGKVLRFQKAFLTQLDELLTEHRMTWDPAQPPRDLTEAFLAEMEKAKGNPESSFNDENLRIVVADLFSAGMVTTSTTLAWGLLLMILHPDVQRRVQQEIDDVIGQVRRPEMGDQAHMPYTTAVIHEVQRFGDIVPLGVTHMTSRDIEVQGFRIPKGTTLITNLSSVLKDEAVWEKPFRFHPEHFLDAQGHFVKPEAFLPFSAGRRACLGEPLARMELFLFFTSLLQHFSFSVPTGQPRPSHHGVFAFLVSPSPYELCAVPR"}, "[2]": {"tested_on": "molecularly unselected NSCLC patients", "conditions": "FIG. 8 (A)"}, "[3]": {"tested_on": "NSCLC patients with drug-sensitive EGFR mutations"}, "[4]": {"conditions": "printed on the line of the peak range"}, "[5]": {"conditions": "printed on the line of the trough range"}}, "note": "Read-outs that look alike come from different tables or passages of the source."}
{"molecule": "Cn1c(=O)c2[nH]cnc2n(C)c1=O", "note": "[Theophylline]", "values": [{"measurement": "Therapeutic Range", "setting": "in vivo", "result": "10 to 20", "unit": "mg/L"}, {"measurement": "t1/2", "setting": "in vivo", "result": "3 to 9", "unit": "h"}]}
{"molecule": "NC[C@H]1O[C@H](O[C@H]2[C@H](O)[C@@H](O[C@H]3O[C@H](CO)[C@@H](O)[C@H](N)[C@H]3O)[C@H](N)C[C@@H]2N)[C@H](N)C[C@@H]1O", "note": "[Tobramycin]", "values": [{"measurement": "t1/2", "setting": "in vivo", "result": 2, "unit": "h"}, {"measurement": "Therapeutic Range, peak", "result": "peak 4-10 mg/L,"}, {"measurement": "Critical", "setting": "[4]", "result": ">12 mg/L,"}, {"measurement": "Critical", "setting": "[5]", "result": ">5", "unit": "mg/L"}, {"measurement": "Therapeutic Range, trough", "result": "trough 0.5-1.5 mg/L"}]}
{"molecule": "CCC1(c2ccccc2)C(=O)NCNC1=O", "note": "[Primidone]", "values": [{"measurement": "Critical", "setting": "in vivo", "result": ">15", "unit": "mg/L"}, {"measurement": "Therapeutic Range", "setting": "in vivo", "result": "5 to 12", "unit": "mg/L"}, {"measurement": "t1/2", "setting": "in vivo", "result": "6 to 12", "unit": "h"}]}
{"molecule": "O=C1NC(=O)C(c2ccccc2)(c2ccccc2)N1", "note": "[Phenytoin]", "values": [{"measurement": "Critical", "setting": "in vivo", "result": ">25", "unit": "mg/L"}, {"measurement": "Therapeutic Range", "setting": "in vivo", "result": "10 to 20", "unit": "mg/L"}, {"measurement": "t1/2", "setting": "in vivo", "result": "6 to 24", "unit": "h"}]}
{"molecule": "NCC[C@H](O)C(=O)N[C@@H]1C[C@H](N)[C@@H](O[C@H]2O[C@H](CN)[C@@H](O)[C@H](O)[C@H]2O)[C@H](O)[C@H]1O[C@H]1O[C@H](CO)[C@@H](O)[C@H](N)[C@H]1O", "note": "[Amikacin]", "values": [{"measurement": "Critical", "setting": "in vivo", "result": ">40", "unit": "mg/L"}, {"measurement": "t1/2", "setting": "in vivo", "result": 2.5, "unit": "h"}, {"measurement": "Therapeutic Range, peak", "result": "peak 20-30 mg/L,"}, {"measurement": "Therapeutic Range, trough", "result": "trough 1-8 mg/L"}]}
{"molecule": "O=C(O)c1ccccc1O", "note": "[Salicylate]", "values": [{"measurement": "Critical", "setting": "in vivo", "result": ">450", "unit": "mg/L"}, {"measurement": "Therapeutic Range", "setting": "in vivo", "result": "100 to 300", "unit": "mg/L"}, {"measurement": "t1/2", "setting": "in vivo", "result": "2 to 19", "unit": "h"}]}
{"molecule": "COc1cc2ncnc(Nc3ccc(F)c(Cl)c3)c2cc1OCCCN1CCOCC1", "note": "[gefitinib, Gefitinib]", "values": [{"measurement": "reduction of area under the curve of gefitinib", "setting": "[1]; co-medication with CYP3A4 inducer rifampin", "result": 83, "unit": "%"}, {"measurement": "exposure to gefitinib", "setting": "[1]; co-medication with CYP3A4 inhibitor (intraconazole), health men", "result": "increases exposure"}, {"measurement": "inhibition of CYP2D6 activity", "setting": "CYP2D6", "result": "weak inhibitor"}, {"measurement": "progression free survival rate", "setting": "[2]", "result": "no detectable change"}]}
{"molecule": "CC(=O)Nc1ccc(O)cc1", "note": "[Acetaminophen]", "values": [{"measurement": "Critical", "setting": "in vivo", "result": ">40", "unit": "mg/L"}, {"measurement": "Therapeutic Range", "setting": "in vivo", "result": "10 to 25", "unit": "mg/L"}, {"measurement": "t1/2", "setting": "in vivo", "result": "1 to 3", "unit": "h"}]}
{"molecule": "CCC1(c2ccccc2)C(=O)NC(=O)NC1=O", "note": "[Phenobarbital]", "values": [{"measurement": "t1/2", "setting": "in vivo", "result": "72 to 100", "unit": "h"}]}
{"molecule": "CN[C@H](CC(C)C)C(=O)N[C@H]1C(=O)N[C@@H](CC(N)=O)C(=O)N[C@H]2C(=O)N[C@H]3C(=O)N[C@H](C(=O)N[C@H](C(=O)O)c4cc(O)cc(O)c4-c4cc3ccc4O)[C@H](O)c3ccc(c(Cl)c3)Oc3cc2cc(c3O[C@@H]2O[C@H](CO)[C@@H](O)[C@H](O)[C@H]2O[C@H]2C[C@](C)(N)[C@H](O)[C@H](C)O2)Oc2ccc(cc2Cl)[C@H]1O", "note": "[Vancomycin]", "values": [{"measurement": "t1/2", "setting": "in vivo", "result": "5.0 to 6.5", "unit": "h"}, {"measurement": "Therapeutic Range, peak", "result": "peak 30-40 mg/L,"}, {"measurement": "Critical", "setting": "[4]", "result": ">50 mg/L,"}, {"measurement": "Critical", "setting": "[5]", "result": ">15", "unit": "mg/L"}, {"measurement": "Therapeutic Range, trough", "result": "trough 5-15 mg/L"}]}
{"molecule": "Gentamicin", "values": [{"measurement": "Critical", "setting": "in vivo", "result": ">12", "unit": "mg/L"}, {"measurement": "t1/2", "setting": "in vivo", "result": 2, "unit": "h"}, {"measurement": "Therapeutic Range, peak", "result": "peak 4-10 mg/L,"}, {"measurement": "Therapeutic Range, trough", "result": "trough 1-2 mg/L"}]}
{"molecule": "C[C@H]1O[C@@H](O[C@H]2[C@@H](O)C[C@H](O[C@H]3[C@@H](O)C[C@H](O[C@H]4CC[C@@]5(C)[C@H](CC[C@@H]6[C@@H]5C[C@@H](O)[C@]5(C)[C@@H](C7=CC(=O)OC7)CC[C@]65O)C4)O[C@@H]3C)O[C@@H]2C)C[C@H](O)[C@@H]1O", "note": "[Digoxin]", "values": [{"measurement": "t1/2", "setting": "in vivo", "result": "33 to 51", "unit": "h"}]}
{"molecule": "NC(=O)N1c2ccccc2C=Cc2ccccc21", "note": "[Carbamazepine]", "values": [{"measurement": "Critical", "setting": "in vivo", "result": ">15", "unit": "mg/L"}, {"measurement": "Therapeutic Range", "setting": "in vivo", "result": "8 to 12", "unit": "mg/L"}, {"measurement": "t1/2", "setting": "in vivo", "result": "10 to 48", "unit": "h"}]}
{"molecule": "C=C[C@H]1C[N@@]2CC[C@H]1C[C@@H]2[C@@H](O)c1ccnc2ccc(OC)cc12", "note": "[Quinidine]", "values": [{"measurement": "Critical", "setting": "in vivo", "result": ">7", "unit": "mg/L"}]}
{"molecule": "CCN(CC)CCNC(=O)c1ccc(NC(C)=O)cc1", "note": "[NAPA, N-acetylprocainamide]", "values": [{"measurement": "t1/2", "setting": "in vivo", "result": "6 to 12", "unit": "h"}]}
{"molecule": "[Li]", "note": "[Lithium]", "values": [{"measurement": "Critical", "setting": "in vivo", "result": ">2.0", "unit": "mmol/L"}, {"measurement": "Therapeutic Range", "setting": "in vivo", "result": "0.5 to 1.5", "unit": "mmol/L"}, {"measurement": "t1/2", "setting": "in vivo", "result": 19, "unit": "h"}]}
{"molecule": "CCN(CC)CC(=O)Nc1c(C)cccc1C", "note": "[Lidocaine]", "values": [{"measurement": "Critical", "setting": "in vivo", "result": ">8.0", "unit": "mg/L"}, {"measurement": "Therapeutic Range", "setting": "in vivo", "result": "1.5 to 5", "unit": "mg/L"}]}
{"molecule": "CCCC(CCC)C(=O)O", "note": "[Valproic acid]", "values": [{"measurement": "Critical", "setting": "in vivo", "result": ">200", "unit": "mg/L"}, {"measurement": "Therapeutic Range", "setting": "in vivo", "result": "50 to 100", "unit": "mg/L"}, {"measurement": "t1/2", "setting": "in vivo", "result": "8 to 15", "unit": "h"}]}
{"molecule": "C#Cc1cccc(Nc2ncnc3cc(OCCOC)c(OCCOC)cc23)c1", "note": "[erlotinib]", "values": [{"measurement": "response in patients with drug-sensitive EGFR mutations at Exon 19 and 21", "setting": "[3]", "result": "significantly better response"}]}
